Results published in BindingDB's records for doi:10.1016/j.bioorg.2017.02.017 (Warsaw University of Technology, 2017).
pKi: −log10 of the molar value.

Molecular target: Casein kinase II subunit alpha (Homo sapiens, UniProt P68400)
Assay: CK2α Inhibition Assay
Description: The activity of CK2α was tested using P81 filter isotopic assay, as it was described earlier [Łukowska-Chojnacka et al., Bioorg.

Sequence of Casein kinase II subunit alpha (P68400 whole entry): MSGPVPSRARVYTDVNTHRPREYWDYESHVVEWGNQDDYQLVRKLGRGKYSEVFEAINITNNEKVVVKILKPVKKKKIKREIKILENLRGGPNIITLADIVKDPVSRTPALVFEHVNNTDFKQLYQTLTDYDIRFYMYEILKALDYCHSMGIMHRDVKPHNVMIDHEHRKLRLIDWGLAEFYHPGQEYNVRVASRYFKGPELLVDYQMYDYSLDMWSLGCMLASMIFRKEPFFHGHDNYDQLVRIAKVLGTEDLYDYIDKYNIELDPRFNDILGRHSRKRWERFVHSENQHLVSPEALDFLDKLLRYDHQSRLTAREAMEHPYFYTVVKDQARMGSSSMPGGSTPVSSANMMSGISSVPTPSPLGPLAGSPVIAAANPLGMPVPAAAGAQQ

SMILES	pKi
[N-]=[N+]=NCCn1cnc2c(Br)c(Br)c(Br)c(Br)c21 [1-(2-Azidoethyl)-4,5,6,7-tetrabromo-1H-benzimidazole (3)]	5.63
[N-]=[N+]=NCCCn1cnc2c(Br)c(Br)c(Br)c(Br)c21 [1-(3-Azidopropyl)-4,5,6,7-tetrabromo-1H-benzimidazole (5)]	5.48
O=C(O)c1cn(CCn2cnc3c(Br)c(Br)c(Br)c(Br)c32)nn1 [1-[2-(4,5,6,7-Tetrabromo-1H-benzimidazol-1-yl)ethyl]-1H-1,2,3-triazole-4-carboxylic acid (7)]	5.71
O=C(O)c1cn(CCCn2cnc3c(Br)c(Br)c(Br)c(Br)c32)nn1 [1-[3-(4,5,6,7-Tetrabromo-1H-benzimidazol-1-yl)propyl]-1H-1,2,3-triazole-4-carboxylic acid (10)]	6.04
O=C(O)c1cn(CCCn2nc3c(Br)c(Br)c(Br)c(Br)c3n2)nn1 [1-[3-(4,5,6,7-Tetrabromo-2H-benzotriazol-2-yl)propyl]-1H-1,2,3-triazole-4-carboxylic acid (22)]	5.61
O=C(O)CCc1cn(CCn2cnc3c(Br)c(Br)c(Br)c(Br)c32)nn1 [3-{1-[2-(4,5,6,7-Tetrabromo-1H-benzimidazol-1-yl)ethyl]-1H-1,2,3-triazole-4-yl}propanoic acid (8)]	5.27
O=C(O)CCc1cn(CCCn2cnc3c(Br)c(Br)c(Br)c(Br)c32)nn1 [3-{1-[3-(4,5,6,7-Tetrabromo-1H-benzimidazol-1-yl)propyl]-1H-1,2,3-triazole-4-yl}propanoic acid (11)]	5.63
O=C(O)CCc1cn(CCCn2nc3c(Br)c(Br)c(Br)c(Br)c3n2)nn1 [3-{1-[3-(4,5,6,7-Tetrabromo-2H-benzotriazol-2-yl)propyl]-1H-1,2,3-triazole-4-yl}propanoic acid (23)]	5.50
Cc1c(Br)c(Br)c(Br)c2nc[nH]c12 [4,5,6-tribromo-7-methyl-1H-benzimidazole (13)]	5.65
